Reference: US9695155B2, “Herbicidal substituted pyrimidinyloxy benzene compounds” (E. I. DU PONT DE NEMOURS AND COMPANY, priority 2013, dated 2017)

Experiments:
[1] = test system: large (Lg) crabgrass; experiment: Test C preemergence; assay type: in vivo, Digitaria sanguinalis; conditions: Digitaria sanguinalis, pre-emergence
In short: (§1)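 Seeds are planted in blended loam soil and sand and treated preemergence, while seedlings in a peat moss/vermiculite medium receive postemergence sprays at 2 to 18 cm height. All plants stay in the greenhouse for 13 to 15 days before visual comparison with controls on a 0–100 scale.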

[2] = test system: pigweed; experiment: Test A postemergence; assay type: in vivo, Amaranthus retroflexus; conditions: Amaranthus retroflexus, post-emergence
In short: (§2)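 Greenhouse pot test, loam/sand soil. Formulation: non-phytotoxic solvent mix plus surfactant. Pre: directed spray onto soil after sowing. Post: plants at 1–2 leaf, 2–10 cm. Rated visually vs untreated controls at ~10 d, 0 (no effect) to 100 (complete control).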

[3] = test system: johnsongrass; experiment: Test C preemergence; assay type: in vivo, Sorghum halepense; conditions: Sorghum halepense, pre-emergence
In short: as §1

[4] = test system: velvetleaf; experiment: Test A preemergence; assay type: in vivo, Abutilon theophrasti; conditions: Abutilon theophrasti, pre-emergence, 240 h, read-out: Velvetleaf plant response rating
In short: as §2

[5] = test system: galium; experiment: Test C postemergence; assay type: in vivo, Galium aparine; conditions: Galium, post-emergence
In short: as §1

[6] = test system: chickweed; experiment: Test C postemergence; assay type: in vivo, Stellaria media; conditions: Stellaria media, post-emergence
In short: as §1

[7] = test system: corn; experiment: Test A postemergence; assay type: in vivo, Zea mays; conditions: Zea mays, post-emergence, 240 h
In short: as §2

[8] = test system: corn; experiment: Test C postemergence; assay type: in vivo, Zea mays; conditions: Zea mays, post-emergence
In short: as §1

[9] = test system: giant foxtail; experiment: Test A postemergence; assay type: in vivo, Setaria faberii; conditions: Setaria faberi, post-emergence, 240 h
In short: as §2

[10] = test system: kochia; experiment: Test C postemergence; assay type: in vivo, Kochia scoparia; conditions: Bassia scoparia, post-emergence
In short: as §1

[11] = test system: ragweed; experiment: Test C preemergence; assay type: in vivo, Ambrosia elatior; conditions: Ambrosia artemisiifolia, pre-emergence
In short: as §1

[12] = test system: large (Lg) crabgrass; experiment: Test A postemergence; assay type: in vivo, Digitaria sanguinalis; conditions: Digitaria sanguinalis, post-emergence, 240 h
In short: as §2

[13] = test system: giant foxtail; experiment: Test C postemergence; assay type: in vivo, Setaria faberii; conditions: Setaria faberi, post-emergence
In short: as §1

[14] = test system: pigweed; experiment: Test A preemergence; assay type: in vivo, Amaranthus retroflexus; conditions: Amaranthus retroflexus, pre-emergence, 240 h, read-out: Pigweed plant response rating
In short: as §2

[15] = test system: barnyardgrass; experiment: Test A preemergence; assay type: in vivo, Echinochloa crus-galli; conditions: Echinochloa crus-galli, pre-emergence, 240 h, read-out: Barnyardgrass plant response rating
In short: as §2

[16] = test system: morningglory; experiment: Test A postemergence; assay type: in vivo, Ipomoea spp.; conditions: Ipomoea, post-emergence, 240 h
In short: as §2

[17] = test system: johnsongrass; experiment: Test C postemergence; assay type: in vivo, Sorghum halepense; conditions: Sorghum halepense, post-emergence
In short: as §1

[18] = test system: lambsquarters; experiment: Test C preemergence; assay type: in vivo, Chenopodium album; conditions: Chenopodium album, pre-emergence
In short: as §1

[19] = 125 g ai/ha, 0 to 100 scale where 0 is no effect and 100 is complete control
[20] = 500 g ai/ha, 0 to 100 scale, 0 no effect, 100 complete control, approx. 10 days

Clc1cnc(Oc2ccccc2-n2cc(Br)cn2)nc1 [Compound 7, 2-[2-(4-bromo-1H-pyrazol-1-yl)phenoxy]-5-chloropyrimidine]
40%: pest or weed control at 250 g/ha ([11]; 250 g ai/ha, preemergence, scale 0 (no effect) to 100 (complete control), read-out: Ragweed plant response rating)
75%: pest or weed control at 250 g/ha ([3]; 250 g ai/ha, preemergence, scale 0 (no effect) to 100 (complete control), read-out: Johnsongrass plant response rating) | plant injury at 250 g/ha ([8]; 250 g ai/ha, postemergence, read-out: Plant response rating (0 to 100), Corn)
60%: plant injury at 125 g/ha ([8]; 125 g ai/ha, postemergence, read-out: Plant response rating (0 to 100), Corn)
30%: Corn plant response rating (crop injury, 0 = no effect, 100 = complete kill) at 125 g/ha [7, 19]
95%: pest or weed control at 250 g/ha ([18]; 250 g ai/ha, preemergence, scale 0 (no effect) to 100 (complete control), read-out: Lambsquarters plant response rating)
70%: pest or weed control at 125 g/ha ([16]; 125 g ai/ha, 0 to 100 scale where 0 is no effect and 100 is complete control, read-out: Plant response rating, Morningglory)
98%: pest or weed control at 62 g/ha ([1]; 62 g ai/ha, preemergence, scale 0 (no effect) to 100 (complete control), read-out: Crabgrass, Large plant response rating) | pest or weed control at 250 g/ha ([5]; 250 g ai/ha, postemergence, read-out: Plant response rating (0 to 100), Galium) | pest or weed control at 250 g/ha ([6]; 250 g ai/ha, postemergence, read-out: Plant response rating (0 to 100), Chickweed) | pest or weed control at 31 g/ha ([10]; Postemergence, 31 g ai/ha, scale 0 to 100 (0 no effect, 100 complete control), 13 to 15 days, read-out: Plant response rating, Kochia) | pest or weed control at 62 g/ha ([10]; Postemergence, 62 g ai/ha, scale 0 to 100 (0 no effect, 100 complete control), read-out: Plant response rating, Kochia)
25%: Corn plant response rating (crop injury, 0 = no effect, 100 = complete kill) at 62 g/ha ([8]; Postemergence, 62 g ai/ha, scale 0 to 100 (0 no effect, 100 complete control))
85%: pest or weed control at 125 g/ha ([18]; 125 g ai/ha, preemergence, scale 0 (no effect) to 100 (complete control), read-out: Lambsquarters plant response rating)
0%: pest or weed control at 31 g/ha ([3]; Preemergence, 31 g ai/ha, scale 0 to 100, 0 no effect, 100 complete control, read-out: Plant response rating, Johnsongrass) | pest or weed control at 62 g/ha ([11]; 62 g ai/ha, preemergence, scale 0 (no effect) to 100 (complete control), read-out: Ragweed plant response rating) | pest or weed control at 31 g/ha ([11]; Preemergence, 31 g ai/ha, scale 0 to 100, 0 no effect, 100 complete control, read-out: Plant response rating, Ragweed) | pest or weed control at 31 g/ha ([13]; Postemergence, 31 g ai/ha, scale 0 to 100 (0 no effect, 100 complete control), 13 to 15 days, read-out: Plant response rating, Foxtail, Giant) | pest or weed control at 31 g/ha ([17]; Postemergence, 31 g ai/ha, scale 0 to 100 (0 no effect, 100 complete control), 13 to 15 days, read-out: Plant response rating, Johnsongrass) | pest or weed control at 62 g/ha ([17]; Postemergence, 62 g ai/ha, scale 0 to 100 (0 no effect, 100 complete control), read-out: Plant response rating, Johnsongrass)
50%: plant injury at 500 g/ha ([7]; 500 g ai/ha, 0 to 100 scale, 0 no effect, 100 complete control, read-out: Plant response rating Corn)
80%: pest or weed control at 31 g/ha ([1]; Preemergence, 31 g ai/ha, scale 0 to 100, 0 no effect, 100 complete control, read-out: Plant response rating, Crabgrass, Large) | pest or weed control at 62 g/ha ([5]; Postemergence, 62 g ai/ha, scale 0 to 100 (0 no effect, 100 complete control), read-out: Plant response rating, Galium) | pest or weed control at 31 g/ha ([6]; Postemergence, 31 g ai/ha, scale 0 to 100 (0 no effect, 100 complete control), 13 to 15 days, read-out: Plant response rating, Chickweed) | pest or weed control at 125 g/ha ([12]; 125 g ai/ha, 0 to 100 scale where 0 is no effect and 100 is complete control, read-out: Plant response rating, Crabgrass, Large) | pest or weed control at 125 g/ha [15, 19] | pest or weed control at 62 g/ha ([18]; 62 g ai/ha, preemergence, scale 0 (no effect) to 100 (complete control), read-out: Lambsquarters plant response rating) | pest or weed control at 31 g/ha ([18]; Preemergence, 31 g ai/ha, scale 0 to 100, 0 no effect, 100 complete control, read-out: Plant response rating, Lambsquarters)
90%: pest or weed control at 125 g/ha ([5]; 125 g ai/ha, postemergence, read-out: Plant response rating (0 to 100), Galium) | pest or weed control at 125 g/ha ([6]; 125 g ai/ha, postemergence, read-out: Plant response rating (0 to 100), Chickweed) | pest or weed control at 125 g/ha ([9]; 125 g ai/ha, 0 to 100 scale where 0 is no effect and 100 is complete control, read-out: Plant response rating, Foxtail, Giant) | pest or weed control at 125 g/ha [14, 19]
65%: pest or weed control at 31 g/ha ([5]; Postemergence, 31 g ai/ha, scale 0 to 100 (0 no effect, 100 complete control), 13 to 15 days, read-out: Plant response rating, Galium)
10%: pest or weed control at 125 g/ha ([3]; 125 g ai/ha, preemergence, scale 0 (no effect) to 100 (complete control), read-out: Johnsongrass plant response rating) | pest or weed control at 125 g/ha ([13]; 125 g ai/ha, postemergence, read-out: Plant response rating (0 to 100), Foxtail, Giant) | pest or weed control at 250 g/ha ([13]; 250 g ai/ha, postemergence, read-out: Plant response rating (0 to 100), Foxtail, Giant) | pest or weed control at 250 g/ha ([17]; 250 g ai/ha, postemergence, read-out: Plant response rating (0 to 100), Johnsongrass)
100%: pest or weed control at 125 g/ha ([1]; 125 g ai/ha, preemergence, scale 0 (no effect) to 100 (complete control), read-out: Crabgrass, Large plant response rating) | pest or weed control at 250 g/ha ([1]; 250 g ai/ha, preemergence, scale 0 (no effect) to 100 (complete control), read-out: Crabgrass, Large plant response rating) | pest or weed control at 125 g/ha ([2]; 125 g ai/ha, 0 to 100 scale where 0 is no effect and 100 is complete control, read-out: Plant response rating, Pigweed) | pest or weed control at 500 g/ha ([2]; 240 h, 500 g ai/ha, 0 to 100 scale, 0 no effect, 100 complete control, read-out: Plant response rating Pigweed) | pest or weed control at 125 g/ha [4, 19] | pest or weed control at 500 g/ha [4, 20] | pest or weed control at 500 g/ha ([9]; 500 g ai/ha, 0 to 100 scale, 0 no effect, 100 complete control, read-out: Plant response rating Foxtail, Giant) | pest or weed control at 125 g/ha ([10]; 125 g ai/ha, postemergence, read-out: Plant response rating (0 to 100), Kochia) | pest or weed control at 250 g/ha ([10]; 250 g ai/ha, postemergence, read-out: Plant response rating (0 to 100), Kochia) | pest or weed control at 500 g/ha ([12]; 500 g ai/ha, 0 to 100 scale, 0 no effect, 100 complete control, read-out: Plant response rating Crabgrass, Large) | pest or weed control at 500 g/ha [14, 20] | pest or weed control at 500 g/ha [15, 20] | pest or weed control at 500 g/ha ([16]; 500 g ai/ha, 0 to 100 scale, 0 no effect, 100 complete control, read-out: Plant response rating Morningglory)
5%: pest or weed control at 62 g/ha ([3]; 62 g ai/ha, preemergence, scale 0 (no effect) to 100 (complete control), read-out: Johnsongrass plant response rating) | pest or weed control at 125 g/ha ([11]; 125 g ai/ha, preemergence, scale 0 (no effect) to 100 (complete control), read-out: Ragweed plant response rating) | pest or weed control at 62 g/ha ([13]; Postemergence, 62 g ai/ha, scale 0 to 100 (0 no effect, 100 complete control), read-out: Plant response rating, Foxtail, Giant) | pest or weed control at 125 g/ha ([17]; 125 g ai/ha, postemergence, read-out: Plant response rating (0 to 100), Johnsongrass)
